Source: patent US5449676A, “Pyridazines” (priority 1991, dated 1995)
Where two headings read alike, the source gives them in different places.

How the values were obtained:
[1] = test system: histamine-induced bronchospasm; test: histamine-induced bronchospasm in anesthetized guinea pigs; type: in vivo; details: 20 μmol/kg; for inhibition in vivo at 20 µmol/kg: Cavia porcellus, iv
Experimental: One histamine spasm before administration of the substance was compared with several histamine spasms after administration of the substance. The test substances were administered intravenously (i.v.) and/or intrajejunally (i.j.).

[2] = test system: acetylcholine-induced bronchospasm; test: protective effect against acetylcholine-induced bronchospasm in conscious guinea pigs; type: in vivo; details: oral, 30 minutes after administration, percentage of protected animals
Experimental: In addition, the bronchospasmolytic effect was tested on the "protective effect against acetylcholine-induced bronchospasm in conscious guinea pigs" model:
Guinea pigs (250-350 g) are exposed in a closed Plexiglass cylinder (volume […] ) to an acetylcholine mist (0.06% in 0.9% sodium chloride solution; Heyer Use 77 ultrasonic atomizer) before administration of the substance and twice at an interval of 20 minutes after administration of the substance. The time from the start of atomization to the onset of marked breathing difficulties (in some cases hypoxic convulsion in the lateral position) is measured and called the latency time. An increase in the latency time after administration of the substance to at least three times the average latency time before administration of the substance is regarded as a protective effect, and the number of protected animals in the group is determined. […]
[…] After 30 minutes, the animals are again exposed to the acetylcholine mist and the latency times are measured. An increase in the latency time to at least three times the length is regarded as a protective effect.

[3] = biological target: T1, PDE III (Homo sapiens, UniProt Q14432); test: inhibition of PDE III isolated from human platelets; type: biochemical; details: negative logarithm of IC50, cAMP 0.5 μmol/l; for IC50: read-out: PDE III hum. platelets -lg[IC50 ] (converted)
T1 construct: PDE III isolated from human platelets; from tissue; host or cells: human platelets
T1 sequence (Q14432 whole entry): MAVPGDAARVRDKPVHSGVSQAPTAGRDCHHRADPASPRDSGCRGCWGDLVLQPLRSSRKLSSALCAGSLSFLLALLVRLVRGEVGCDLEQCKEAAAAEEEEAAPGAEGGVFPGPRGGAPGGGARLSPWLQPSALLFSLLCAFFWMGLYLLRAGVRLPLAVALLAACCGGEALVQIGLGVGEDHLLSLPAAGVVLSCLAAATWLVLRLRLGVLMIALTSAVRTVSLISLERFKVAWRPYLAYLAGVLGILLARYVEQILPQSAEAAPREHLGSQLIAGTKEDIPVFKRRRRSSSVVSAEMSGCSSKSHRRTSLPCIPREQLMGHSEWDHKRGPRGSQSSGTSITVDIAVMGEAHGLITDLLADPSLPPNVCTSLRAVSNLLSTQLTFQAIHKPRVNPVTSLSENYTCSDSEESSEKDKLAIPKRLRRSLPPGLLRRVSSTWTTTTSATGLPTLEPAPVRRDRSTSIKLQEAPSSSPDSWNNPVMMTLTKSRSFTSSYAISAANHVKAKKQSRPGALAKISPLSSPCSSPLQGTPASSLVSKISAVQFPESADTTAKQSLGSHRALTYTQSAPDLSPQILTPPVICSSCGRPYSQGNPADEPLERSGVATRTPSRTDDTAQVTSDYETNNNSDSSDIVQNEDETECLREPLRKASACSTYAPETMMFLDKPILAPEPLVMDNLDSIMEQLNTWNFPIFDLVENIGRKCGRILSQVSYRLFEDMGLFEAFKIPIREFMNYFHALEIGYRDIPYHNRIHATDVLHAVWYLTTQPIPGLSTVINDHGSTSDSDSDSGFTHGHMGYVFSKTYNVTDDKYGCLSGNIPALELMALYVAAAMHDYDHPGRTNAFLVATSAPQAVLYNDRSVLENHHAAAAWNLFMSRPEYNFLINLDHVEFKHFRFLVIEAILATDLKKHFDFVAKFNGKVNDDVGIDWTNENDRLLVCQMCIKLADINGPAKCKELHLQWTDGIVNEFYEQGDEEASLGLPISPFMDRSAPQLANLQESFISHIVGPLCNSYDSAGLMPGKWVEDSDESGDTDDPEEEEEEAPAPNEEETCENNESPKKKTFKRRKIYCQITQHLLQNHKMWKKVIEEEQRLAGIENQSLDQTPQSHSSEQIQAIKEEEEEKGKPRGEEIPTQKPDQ
Description: (§1) The specific inhibition of phosphodiesterase IV (PDE IV=high-affinity cAMP-PDE which cannot be inhibited by cGMP, rolipram-sensitive) is regarded as particularly indicative of an expected bronchospasmolytic and/or antiinflammatory effect. The specificity of the inhibition is moreover described by the ratio [IC50 ]PDE-III /[IC50 ]PDE-IV (PDE III=high-affinity cAMP-PDE which can be inhibited by cGMP) [H. Hidaka et al., Adv. Cycl. Nucl. Res. 13, 145 (1984); TiPS 5, 237 (1984); R. Weishaar et al., J. Med. Chem. 28, (1985); S. A. Harrison et al., Molec. Pharmac. 29, 506 (1986); J. Klein-Tebbe et al., Allergologie 12, 12 (1989); C. Schudt et al., Allergologie 12, 12, (1989); C. Schudt et al., Agents and Action 1991 in press; C. D. Nicholson et al., TiPS 12, (1), 19 (1991)].
(§2) For this reason, the PDE inhibition by the compounds according to the invention was determined on a PDE III isolated from human platelets and on PDE IV isolated from human polymorphonuclear neutrophilic cells (PMNs) and from the dog trachea. Phosphodiesterases III and IV are isolated by chromatography as described by Polson et al., Biochem. Pharmacol. 31, 3403-3406 (1982).
(§3) The substances are dissolved and diluted further in DMSO. 2.1 μl samples from a series of solutions diluted up to 100 fold are mixed with 212 μl of reaction mixture. The reaction mixture contains Hepes (100 mmol/l), DTE (5 mmol/l), MgCl2 (5 mmol/l), CaCl2 (10 μmol/l), BSA fraction V 0.5 mg, ml, cAMP 0.5 μmol/l, 2,8-^3 H-cAMP 250,000 cpm/ml (0.3 μCi/ml, S.A. […]), SV (snake venom) 25 μg/212 μl of test mixture.

[4] = test system: PDE IV; test: inhibition of PDE IV isolated from dog trachea; type: biochemical; details: for PDE IV dog trachea -lg[IC50 ]: negative logarithm of IC50, cAMP 0.5 μmol/l; for [IC50 ] PDE III/[IC50 ] PDE IV dog tr.: selectivity ratio, PDE III hum. platelets vs PDE IV dog trachea
Description: as §1, §2, §3

[5] = test system: PDE IV; test: inhibition of PDE IV isolated from human polymorphonuclear neutrophilic cells (PMNs); type: biochemical; details: for PDE IV hum. PMNs -lg[IC50 ]: negative logarithm of IC50, cAMP 0.5 μmol/l; for [IC50 ] PDE III/[IC50 ] PDE IV PMNs: selectivity ratio, PDE III hum. platelets vs PDE IV hum. PMNs
Description: as §1, §2, §3

[6] = test system: tracheal rings; test: bronchospasmolytic effect on the chain of tracheal rings from guinea pigs in vitro; type: cell-based; details: for EC50: Cavia porcellus, negative logarithm of EC50 mol/l, 50% of maximum achievable relaxation, read-out: -lg[EC50 ] (converted); for [EC50 ] theophylline/[EC50 ] substance: ratio of EC50 values, theophylline vs substance
Experimental: The bronchospasmolytic effect of the compounds on the chain of tracheal rings from guinea pigs was tested in vitro as follows:
Thus, a complete dose-effect plot for the test substance is obtained over a period of 20 to 30 minutes. The particular relaxation is expressed as a percentage fraction of the maximum relaxation achievable by administration of (-)isoprenaline (10^-6 mol/l).

[7] = Cavia porcellus, 0.5 h, 100 μmol/kg
[8] = after 1 h, read-out: % inhibition after 1 h of the histamine-induced decrease in Vmax
[9] = average 0-1 h after administration, read-out: % inhibition (0-1 h) of the histamine-induced decrease in Vmax

Row | Compound | % inhibition after 1 h of the histamine-induced decrease in Vmax ([1]; i.v., after 1 h) [%] | % inhibition (0-1 h) of the histamine-induced decrease in Vmax ([1]; i.v., average 0-1 h after administration) [%] | % protective effect ([2]; 30 μmol/kg) [%] | % protective effect ([2]; 100 μmol/kg) [%] | % protective effect ([2]; 300 μmol/kg) [%] | PDE III hum. platelets -lg[IC50 ] [3] | PDE IV dog trachea -lg[IC50 ] [4] | [IC50 ] PDE III/[IC50 ] PDE IV dog tr. [4] | PDE IV hum. PMNs -lg[IC50 ] [5] | [IC50 ] PDE III/[IC50 ] PDE IV PMNs [5] | responders at 30 µmol/kg ([2]; Cavia porcellus, 0.5 h, 30 μmol/kg) [%] | responders at 100 µmol/kg [2, 7] [%] | IC50 [3] [µM] | EC50 [6] [µM] | [EC50 ] theophylline/[EC50 ] substance [6] | inhibition in vivo at 20 µmol/kg [1, 8] [%] | inhibition in vivo at 20 µmol/kg [1, 9] [%] | responders at 4 µmol/kg ([2]; Cavia porcellus, 0.5 h, 4 μmol/kg) [%] | responders at 2 µmol/kg ([2]; Cavia porcellus, 0.5 h, 2 μmol/kg) [%]
1 | 3-amino-6-(3-cyclopentyloxy-4methoxyphenyl)pyridazine [Serial No. 6] | 20 | 34 | 50 | 70 | 80 | < 4.0 | 6.48 | > 304 | 6.18 | > 151 |  |  |  |  |  |  |  |  | 
2 | COc1ccc(-c2ccc(N)nn2)cc1OCC(C)C [Serial No. 2, 3-amino-6-[4-methoxy-3-(2-methylpropoxy)phenyl]pyridazine] |  |  |  |  |  |  | < 5.0 | < 20.9 |  |  | 50 | 80 | 209 |  |  |  |  |  | 
3 | COc1ccc(-c2ccc(N)nn2)cc1OC1CCCCCC1 [Serial No. 8, 3-amino-6-(3-cycloheptyloxy-4-methoxyphenyl)pyridazine] |  |  |  |  |  |  | 5.37 | 18.2 |  |  |  |  | 77.6 |  |  |  |  |  | 
4 | CCOc1ccc(-c2ccc(N)nn2)cc1OCC(C)C [compound 9] |  |  |  |  |  |  | 5.68 | 60.2 |  |  |  | 65 | 126 | 9.77 | 13.8 | 20 | 16 |  | 
5 | CCOc1cc(-c2ccc(N)nn2)ccc1OC(F)F [compound 10] |  |  |  |  |  |  | 5.37 | 52.5 |  |  |  | 50 | 224 | 8.32 | 16.2 | 44 | 38 |  | 
6 | COc1cc(-c2ccc(N)nn2)ccc1OC(F)F [compound 11] |  |  |  |  |  |  | 5.09 | 22.9 |  |  |  | 80 | 195 | 4.9 | 27.6 | 26 | 30 |  | 
7 | CCOc1ccc(-c2ccc(N)nn2)cc1OC(F)F [compound 12] |  |  |  |  |  |  | 4.42 | 9.6 |  |  |  | 50 | 316 | 4.47 | 30.2 |  |  |  | 
8 | COc1ccc(-c2ccc(N)nn2)cc1OCC1CCC1 [compound 13] |  |  |  |  |  |  | 4.88 | 17.0 |  |  |  | 65 | 224 |  |  |  |  |  | 
9 | CCOc1cc(-c2ccc(N)[n+]([O-])n2)ccc1OC(F)F [compound 19] |  |  |  |  |  |  | 5.82 | 41.7 | 6.58 | 240 |  |  | 63.1 | 0.151 | 893 | 81 | 71 | 50 | 
10 | COc1cc(-c2ccc(N)[n+]([O-])n2)ccc1OC(F)F [compound 20] |  |  |  |  |  |  | 5.08 | 1.8 | 5.89 | 11.5 |  |  | 14.8 | 0.447 | 302 | 48 | 40 |  | 50
